Test results: patent publication US20170190705A1, “Compositions and Methods for Inhibiting BMP” (THE BRIGHAM AND WOMAN'S HOSPITAL, INC., priority 2014, published 2017)

Experiments:
Format in all cases: biochemical
[1] = biological target: CDK6/cyclinD3 (Homo sapiens, UniProt Q00534); assay: Kinome profiling CDK6/cyclinD3; settings: read-out: Inhibitory activity CDK6/cyclinD3; for inhibition at 0.1 µM: 100 nM
Description: (§1) . The kinome-wide selectivity was determined following the methods previously reported by Mohedas et al., ACS Chem Biol 2013, 8, 1291-1302 and Sanvitale et al., PLoS One 2013, 8, e62721.

[2] = biological target: FLT-4 (Homo sapiens, UniProt P35916); assay: Kinome profiling FLT-4; settings: read-out: Inhibitory activity FLT-4; for inhibition at 0.1 µM: 100 nM
Sequence of FLT-4 (P35916 25-1363): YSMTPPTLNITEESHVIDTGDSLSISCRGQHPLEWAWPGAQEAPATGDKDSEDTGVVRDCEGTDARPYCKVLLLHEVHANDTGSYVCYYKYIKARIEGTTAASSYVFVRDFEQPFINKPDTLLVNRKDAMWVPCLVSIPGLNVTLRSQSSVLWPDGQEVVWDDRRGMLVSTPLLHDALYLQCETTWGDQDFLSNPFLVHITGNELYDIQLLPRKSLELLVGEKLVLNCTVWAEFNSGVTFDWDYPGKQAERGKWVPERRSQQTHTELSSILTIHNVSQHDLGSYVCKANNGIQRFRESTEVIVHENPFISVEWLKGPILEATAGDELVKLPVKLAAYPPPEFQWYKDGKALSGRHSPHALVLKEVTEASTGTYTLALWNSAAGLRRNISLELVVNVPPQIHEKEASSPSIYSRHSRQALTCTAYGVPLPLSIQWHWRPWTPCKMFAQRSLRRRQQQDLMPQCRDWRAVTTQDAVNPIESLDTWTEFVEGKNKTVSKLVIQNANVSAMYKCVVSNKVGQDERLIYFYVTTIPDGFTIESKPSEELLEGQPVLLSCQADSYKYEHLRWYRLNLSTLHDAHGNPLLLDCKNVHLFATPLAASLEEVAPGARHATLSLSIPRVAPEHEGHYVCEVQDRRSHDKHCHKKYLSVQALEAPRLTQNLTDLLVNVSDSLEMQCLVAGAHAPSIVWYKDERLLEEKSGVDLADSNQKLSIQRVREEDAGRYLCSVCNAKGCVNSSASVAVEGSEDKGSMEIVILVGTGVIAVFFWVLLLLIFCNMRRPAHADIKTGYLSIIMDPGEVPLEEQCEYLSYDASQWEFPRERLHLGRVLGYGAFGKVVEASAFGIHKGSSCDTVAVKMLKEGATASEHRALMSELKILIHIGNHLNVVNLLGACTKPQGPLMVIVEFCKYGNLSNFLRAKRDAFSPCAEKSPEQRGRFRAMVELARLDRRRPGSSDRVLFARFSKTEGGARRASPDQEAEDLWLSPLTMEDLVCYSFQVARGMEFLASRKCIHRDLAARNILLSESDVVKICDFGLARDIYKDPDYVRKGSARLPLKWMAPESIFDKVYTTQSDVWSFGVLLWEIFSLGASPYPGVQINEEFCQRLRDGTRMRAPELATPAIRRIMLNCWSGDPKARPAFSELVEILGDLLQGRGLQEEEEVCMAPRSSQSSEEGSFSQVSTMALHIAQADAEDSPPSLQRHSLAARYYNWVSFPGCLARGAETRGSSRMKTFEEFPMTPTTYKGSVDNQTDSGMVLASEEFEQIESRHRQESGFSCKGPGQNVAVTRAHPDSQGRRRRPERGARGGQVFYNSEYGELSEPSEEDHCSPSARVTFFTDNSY
Description: as §1

[3] = biological target: PIM3 (Homo sapiens, UniProt Q86V86); assay: Kinome profiling PIM3; settings: read-out: Inhibitory activity PIM3; for inhibition at 0.1 µM: 100 nM
Description: as §1

[4] = biological target: INSR (Homo sapiens, UniProt P06213); assay: Kinome profiling INSR; settings: read-out: Inhibitory activity INSR; for inhibition at 0.1 µM: 100 nM
Description: as §1

[5] = biological target: EPH-A4 (Homo sapiens, UniProt P54764); assay: Kinome profiling EPH-A4; settings: read-out: Inhibitory activity EPH-A4; for inhibition at 0.1 µM: 100 nM
Sequence of EPH-A4 (P54764 20-986): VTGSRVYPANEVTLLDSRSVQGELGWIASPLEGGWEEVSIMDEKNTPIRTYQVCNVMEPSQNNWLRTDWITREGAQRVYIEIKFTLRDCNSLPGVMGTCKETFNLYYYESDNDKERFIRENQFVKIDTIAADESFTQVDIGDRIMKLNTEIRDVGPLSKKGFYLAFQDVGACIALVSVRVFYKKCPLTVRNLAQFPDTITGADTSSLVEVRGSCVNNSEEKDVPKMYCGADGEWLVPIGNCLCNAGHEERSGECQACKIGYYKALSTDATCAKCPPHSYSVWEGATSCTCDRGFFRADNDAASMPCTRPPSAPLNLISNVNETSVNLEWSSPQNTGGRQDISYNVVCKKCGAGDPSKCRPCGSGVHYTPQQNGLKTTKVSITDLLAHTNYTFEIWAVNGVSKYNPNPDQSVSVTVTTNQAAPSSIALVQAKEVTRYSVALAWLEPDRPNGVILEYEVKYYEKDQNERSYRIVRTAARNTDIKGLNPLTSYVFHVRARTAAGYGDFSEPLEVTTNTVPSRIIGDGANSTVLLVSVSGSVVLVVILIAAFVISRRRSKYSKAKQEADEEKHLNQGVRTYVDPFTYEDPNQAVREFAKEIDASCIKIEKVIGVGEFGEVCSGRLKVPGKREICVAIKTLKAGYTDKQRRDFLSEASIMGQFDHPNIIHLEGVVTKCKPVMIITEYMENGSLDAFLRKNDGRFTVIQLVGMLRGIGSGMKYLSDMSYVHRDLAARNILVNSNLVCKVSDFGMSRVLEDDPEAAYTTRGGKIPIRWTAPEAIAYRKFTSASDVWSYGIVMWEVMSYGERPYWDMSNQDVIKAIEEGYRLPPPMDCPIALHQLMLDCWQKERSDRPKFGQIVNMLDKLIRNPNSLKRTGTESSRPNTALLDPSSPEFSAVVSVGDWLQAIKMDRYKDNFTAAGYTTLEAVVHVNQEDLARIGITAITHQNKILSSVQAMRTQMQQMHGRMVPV
Description: as §1

[6] = biological target: T1, IRAK4 (Homo sapiens, UniProt Q9NWZ3); assay: Kinome profiling IRAK4; settings: read-out: Inhibitory activity IRAK4; for inhibition at 0.1 µM: 100 nM
T1 sequence (Q9NWZ3 1-460): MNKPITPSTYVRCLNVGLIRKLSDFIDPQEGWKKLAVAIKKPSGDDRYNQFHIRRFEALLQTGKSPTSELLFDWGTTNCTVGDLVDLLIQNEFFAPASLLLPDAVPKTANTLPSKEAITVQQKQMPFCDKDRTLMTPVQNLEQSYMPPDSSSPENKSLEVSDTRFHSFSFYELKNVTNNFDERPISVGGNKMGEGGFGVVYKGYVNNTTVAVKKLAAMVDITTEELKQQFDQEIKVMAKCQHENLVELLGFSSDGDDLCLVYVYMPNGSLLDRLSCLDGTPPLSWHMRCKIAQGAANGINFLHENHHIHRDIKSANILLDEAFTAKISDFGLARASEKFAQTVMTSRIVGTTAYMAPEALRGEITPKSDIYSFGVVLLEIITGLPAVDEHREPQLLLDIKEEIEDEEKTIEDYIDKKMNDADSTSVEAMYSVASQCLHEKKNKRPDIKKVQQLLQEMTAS
Description: as §1

[7] = biological target: NEK6 (Homo sapiens, UniProt Q9HC98); assay: Kinome profiling NEK6; settings: read-out: Inhibitory activity NEK6; for inhibition at 0.1 µM: 100 nM
Sequence of NEK6 (Q9HC98 whole entry): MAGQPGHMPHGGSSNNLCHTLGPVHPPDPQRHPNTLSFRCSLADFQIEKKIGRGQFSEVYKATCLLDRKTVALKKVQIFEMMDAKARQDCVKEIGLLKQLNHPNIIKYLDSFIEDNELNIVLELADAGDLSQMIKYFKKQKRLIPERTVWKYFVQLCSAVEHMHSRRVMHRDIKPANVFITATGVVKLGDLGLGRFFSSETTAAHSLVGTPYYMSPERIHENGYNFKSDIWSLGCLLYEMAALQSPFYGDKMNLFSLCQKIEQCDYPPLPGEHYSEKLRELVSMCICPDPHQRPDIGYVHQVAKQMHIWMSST
Description: as §1

[8] = biological target: DYRK1A (Homo sapiens, UniProt Q13627); assay: Kinome profiling DYRK1A; settings: read-out: Inhibitory activity DYRK1A; for inhibition at 0.1 µM: 100 nM
Description: as §1

[9] = biological target: PAK1 (Homo sapiens, UniProt Q13153); assay: Kinome profiling PAK1; settings: read-out: Inhibitory activity PAK1; for inhibition at 0.1 µM: 100 nM
Description: as §1

[10] = biological target: BRK (Homo sapiens, UniProt Q13882); assay: Kinome profiling BRK; settings: read-out: Inhibitory activity BRK; for inhibition at 0.1 µM: 100 nM
Sequence of BRK (Q13882 whole entry): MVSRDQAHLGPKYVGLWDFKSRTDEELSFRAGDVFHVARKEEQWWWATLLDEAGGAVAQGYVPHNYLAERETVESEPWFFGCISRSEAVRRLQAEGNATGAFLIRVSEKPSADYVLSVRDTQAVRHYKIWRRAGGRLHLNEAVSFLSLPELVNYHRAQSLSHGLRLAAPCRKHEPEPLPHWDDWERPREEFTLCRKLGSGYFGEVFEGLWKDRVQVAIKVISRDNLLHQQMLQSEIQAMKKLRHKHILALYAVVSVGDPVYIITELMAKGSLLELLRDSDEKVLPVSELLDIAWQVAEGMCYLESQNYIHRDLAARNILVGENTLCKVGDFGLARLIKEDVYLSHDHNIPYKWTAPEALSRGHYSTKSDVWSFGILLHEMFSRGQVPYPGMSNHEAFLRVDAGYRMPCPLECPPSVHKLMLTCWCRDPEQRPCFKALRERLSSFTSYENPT
Description: as §1

[11] = biological target: T2, NEK9 (Homo sapiens, UniProt Q8TD19); assay: Kinome profiling NEK9; settings: read-out: Inhibitory activity NEK9; for inhibition at 0.1 µM: 100 nM
T2 sequence (Q8TD19 1-979): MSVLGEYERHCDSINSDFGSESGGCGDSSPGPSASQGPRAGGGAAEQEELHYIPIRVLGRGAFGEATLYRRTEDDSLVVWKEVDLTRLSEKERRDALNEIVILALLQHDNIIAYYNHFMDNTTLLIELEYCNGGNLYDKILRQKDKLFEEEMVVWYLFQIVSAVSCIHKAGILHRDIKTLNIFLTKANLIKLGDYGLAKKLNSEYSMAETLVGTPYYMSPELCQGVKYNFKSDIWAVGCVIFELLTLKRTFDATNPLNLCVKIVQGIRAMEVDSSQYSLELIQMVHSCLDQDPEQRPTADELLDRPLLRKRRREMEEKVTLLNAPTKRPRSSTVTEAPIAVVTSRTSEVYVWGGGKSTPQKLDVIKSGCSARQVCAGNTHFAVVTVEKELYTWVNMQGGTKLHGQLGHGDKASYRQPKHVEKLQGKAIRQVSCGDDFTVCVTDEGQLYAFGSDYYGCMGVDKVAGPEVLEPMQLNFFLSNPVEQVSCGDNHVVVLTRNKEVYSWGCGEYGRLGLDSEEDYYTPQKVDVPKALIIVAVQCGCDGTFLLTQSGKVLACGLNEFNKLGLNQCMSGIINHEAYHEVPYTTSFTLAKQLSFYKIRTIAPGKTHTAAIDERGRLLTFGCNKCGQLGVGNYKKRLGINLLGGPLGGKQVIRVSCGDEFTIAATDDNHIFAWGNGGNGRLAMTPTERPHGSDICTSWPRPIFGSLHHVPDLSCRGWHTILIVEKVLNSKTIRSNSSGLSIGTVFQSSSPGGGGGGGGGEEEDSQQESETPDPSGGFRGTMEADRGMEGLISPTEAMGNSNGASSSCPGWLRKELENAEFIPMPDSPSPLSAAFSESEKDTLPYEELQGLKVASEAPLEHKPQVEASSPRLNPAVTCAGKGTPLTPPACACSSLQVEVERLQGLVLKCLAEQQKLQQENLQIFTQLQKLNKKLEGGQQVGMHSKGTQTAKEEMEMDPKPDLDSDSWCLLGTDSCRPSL
Description: as §1

[12] = biological target: P38α (Homo sapiens, UniProt Q16539); assay: Kinome profiling P38α; settings: read-out: Inhibitory activity P38α; for inhibition at 0.1 µM: 100 nM
Sequence of P38α (Q16539 whole entry): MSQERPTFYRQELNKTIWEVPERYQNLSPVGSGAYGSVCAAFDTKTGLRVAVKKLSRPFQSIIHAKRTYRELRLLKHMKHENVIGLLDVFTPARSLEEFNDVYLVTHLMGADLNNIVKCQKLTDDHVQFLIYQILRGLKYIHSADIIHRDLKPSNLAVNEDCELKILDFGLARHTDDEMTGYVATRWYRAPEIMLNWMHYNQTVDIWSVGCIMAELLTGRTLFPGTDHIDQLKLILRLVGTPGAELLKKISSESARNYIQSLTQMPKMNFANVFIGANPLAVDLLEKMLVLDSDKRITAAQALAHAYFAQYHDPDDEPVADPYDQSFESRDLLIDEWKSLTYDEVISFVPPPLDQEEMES
Description: as §1

[13] = biological target: ERBB4 (Homo sapiens, UniProt Q15303); assay: Kinome profiling ERBB4; settings: read-out: Inhibitory activity ERBB4; for inhibition at 0.1 µM: 100 nM
Sequence of ERBB4 (Q15303 26-1308): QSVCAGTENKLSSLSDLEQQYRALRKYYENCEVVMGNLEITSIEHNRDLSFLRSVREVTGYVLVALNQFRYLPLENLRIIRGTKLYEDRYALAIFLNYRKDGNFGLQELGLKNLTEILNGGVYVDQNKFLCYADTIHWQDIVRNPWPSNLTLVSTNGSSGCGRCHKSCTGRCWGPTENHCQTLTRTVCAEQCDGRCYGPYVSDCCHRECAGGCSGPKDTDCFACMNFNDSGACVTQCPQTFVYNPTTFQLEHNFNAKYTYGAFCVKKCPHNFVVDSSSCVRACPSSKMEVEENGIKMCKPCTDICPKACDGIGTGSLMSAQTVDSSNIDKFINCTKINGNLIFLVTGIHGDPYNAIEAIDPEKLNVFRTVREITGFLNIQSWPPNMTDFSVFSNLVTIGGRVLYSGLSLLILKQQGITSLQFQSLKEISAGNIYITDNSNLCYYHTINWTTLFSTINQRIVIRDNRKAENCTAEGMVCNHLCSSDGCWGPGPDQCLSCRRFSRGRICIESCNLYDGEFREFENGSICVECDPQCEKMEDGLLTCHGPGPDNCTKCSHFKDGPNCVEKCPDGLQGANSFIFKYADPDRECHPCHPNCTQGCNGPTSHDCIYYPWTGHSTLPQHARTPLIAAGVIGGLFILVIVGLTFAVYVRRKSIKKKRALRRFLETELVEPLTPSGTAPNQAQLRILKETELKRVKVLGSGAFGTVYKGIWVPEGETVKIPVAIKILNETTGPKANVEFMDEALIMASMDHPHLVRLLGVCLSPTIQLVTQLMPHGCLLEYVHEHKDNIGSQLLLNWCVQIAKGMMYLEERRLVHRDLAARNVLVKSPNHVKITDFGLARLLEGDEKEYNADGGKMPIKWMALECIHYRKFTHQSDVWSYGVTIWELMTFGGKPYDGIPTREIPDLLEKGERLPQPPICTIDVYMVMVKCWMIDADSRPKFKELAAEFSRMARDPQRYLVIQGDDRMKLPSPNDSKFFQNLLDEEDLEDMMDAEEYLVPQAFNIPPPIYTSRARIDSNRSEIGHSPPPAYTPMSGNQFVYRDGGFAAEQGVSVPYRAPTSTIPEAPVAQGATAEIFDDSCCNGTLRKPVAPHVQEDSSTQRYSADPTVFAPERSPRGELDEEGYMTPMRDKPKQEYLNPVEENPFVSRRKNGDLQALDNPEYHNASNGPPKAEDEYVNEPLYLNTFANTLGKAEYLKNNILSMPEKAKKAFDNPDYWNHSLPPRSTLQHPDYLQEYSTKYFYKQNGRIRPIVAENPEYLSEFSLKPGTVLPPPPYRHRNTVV
Description: as §1

[14] = biological target: JAK2 (Homo sapiens, UniProt O60674); assay: Kinome profiling JAK2; settings: read-out: Inhibitory activity JAK2; for inhibition at 0.1 µM: 100 nM
Description: as §1

Row | SMILES | inhibition at 0.1 µM [1] [%] | inhibition at 1 µM [1] [%] | inhibition at 0.1 µM [2] [%] | inhibition at 1 µM [2] [%] | inhibition at 0.1 µM [3] [%] | inhibition at 1 µM [3] [%] | inhibition at 0.1 µM [4] [%] | inhibition at 1 µM [4] [%] | inhibition at 0.1 µM [5] [%] | inhibition at 1 µM [5] [%] | inhibition at 0.1 µM [6] [%] | inhibition at 1 µM [6] [%] | inhibition at 0.1 µM [7] [%] | inhibition at 1 µM [7] [%] | inhibition at 0.1 µM [8] [%] | inhibition at 1 µM [8] [%] | inhibition at 0.1 µM [9] [%] | inhibition at 1 µM [9] [%] | inhibition at 0.1 µM [10] [%] | inhibition at 1 µM [10] [%] | also measured
1 | COc1cc(-c2cc(-c3ccc(N4CCNCC4)cc3)cnc2C)cc(OC)c1OC [Compound 10, 1-(4-(6-methyl-5-(3,4,5-trimethoxyphenyl)pyridin-3-yl)phenyl)piperazine] | 3 | 1 | 3 | 9 | 3 | 4 | 3 | 3 | 7 | 5 | 0 | 1 | 1 | 0 | 3 | 5 | 2 | 3 | 7 | 36 | inhibition at 0.1 µM [11]: 1%; inhibition at 1 µM [11]: 1%; inhibition at 0.1 µM [12]: -2%; inhibition at 1 µM [12]: 1%; inhibition at 0.1 µM [13]: 4%; inhibition at 1 µM [13]: 21%; inhibition at 0.1 µM [14]: 5%; inhibition at 1 µM [14]: 4%
2 | COc1cc(-c2cc(-c3ccc(N4CCNCC4)cc3)cnc2N)cc(OC)c1OC [Compound 15, 5-(4-(piperazin-1-yl)phenyl)-3-(3,4,5-trimethoxyphenyl)pyridin-2-amine] | 3 | 6 | 1 | 4 | 1 | -1 | 4 | 8 | -1 | 45 | 1 | 2 | 0 | 4 | 2 | 5 | 0 | 6 | 43 | 92 | inhibition at 0.1 µM [11]: 3%; inhibition at 1 µM [11]: 6%; inhibition at 0.1 µM [12]: 4%; inhibition at 1 µM [12]: 9%; inhibition at 0.1 µM [13]: 9%; inhibition at 1 µM [13]: 29%; inhibition at 0.1 µM [14]: 0%; inhibition at 1 µM [14]: 0%
